The subject of the experiment is L1210 leukemia ip in BDF1 mice, survival T/C. The experiment in a line: NCI In Vivo Anticancer Drug Screen. Data for tumor model L1210 Leukemia (intraperitoneal) in B6D2F1 (BDF1) mice. The note with it: endpoint: mean survival time, higher = longer survival. A digest of the protocol: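 Each compound was tested against a transplantable tumor grown in mice. The endpoint was survival, with treated animals benchmarked against vehicle controls as a simple ratio.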

Where [1] appears, read: dose: 20.0 mg/kg/injection, schedule: Q01DX Z (ip), vehicle: carboxymethylcellulose (CMC).
Where [2] appears, read: dose: 40.0 mg/kg/injection, schedule: Q01DX Z (ip), vehicle: carboxymethylcellulose (CMC).
The mark [3] stands for this setting: dose: 100.0 mg/kg/injection, schedule: Q01DX001 (ip), vehicle: saline.
Setting [4] is: dose: 200.0 mg/kg/injection, schedule: Q01DX001 (ip), vehicle: saline.
Setting [5] is: dose: 400.0 mg/kg/injection, schedule: Q01DX001 (ip), vehicle: saline.
The mark [6] stands for this setting: dose: 100.0 mg/kg/injection, schedule: Q01DX009 (ip), vehicle: Klucel (hydroxypropylcellulose) (HPC).
Setting [7] is: dose: 10.0 mg/kg/injection, schedule: Q01DX001 (ip), vehicle: saline.
[8] abbreviates: dose: 20.0 mg/kg/injection, schedule: Q01DX001 (ip), vehicle: saline.
Setting [9] is: dose: 100.0 mg/kg/injection, schedule: Q01DX009 (ip), vehicle: saline with Tween-80.
The mark [10] stands for this setting: dose: 200.0 mg/kg/injection, schedule: Q01DX009 (ip), vehicle: saline with Tween-80.
The mark [11] stands for this setting: dose: 100.0 mg/kg/injection, schedule: Q04DX003 (ip), vehicle: saline with Tween-80.
The mark [12] stands for this setting: dose: 200.0 mg/kg/injection, schedule: Q04DX003 (ip), vehicle: saline with Tween-80.
Where [13] appears, read: dose: 400.0 mg/kg/injection, schedule: Q04DX003 (ip), vehicle: saline with Tween-80.

The structures appear in SMILES notation. “And” between values parts separate entries of the source, which are not always exact repeats. Equal values may be shown once. Inconclusive results and toxic doses are left out.

The results in this text go back to PubChem BioAssay AID248 (DTP/NCI, 2004).

In the case of `COCCOC`, the T/C was 103 % of control (dose: 86.0 mg/kg/injection, schedule: Q01DX Z (ip), vehicle: saline); 107 % of control (dose: 100.0 mg/kg/injection, schedule: Q04DX003 (ip), vehicle: acetone); 106 % of control (dose: 125.0 mg/kg/injection, schedule: Q01DX Z (ip), vehicle: saline); 106 % of control (dose: 130.0 mg/kg/injection, schedule: Q01DX Z (ip), vehicle: saline); 102 % of control (dose: 200.0 mg/kg/injection, schedule: Q04DX003 (ip), vehicle: acetone); 113 % of control (dose: 250.0 mg/kg/injection, schedule: Q01DX Z (ip), vehicle: saline). For the same compound, the T/C was 102 % of control (dose: 400.0 mg/kg/injection, schedule: Q04DX003 (ip), vehicle: acetone); 154 % of control (dose: 450.0 mg/kg/injection, schedule: Q01DX Z (ip), vehicle: saline); 116 % of control (dose: 500.0 mg/kg/injection, schedule: Q01DX Z (ip), vehicle: saline); 150 % of control and 160 % of control (dose: 675.0 mg/kg/injection, schedule: Q01DX Z (ip), vehicle: saline); 96 % of control (dose: 1500.0 mg/kg/injection, schedule: Q01DX Z (ip), vehicle: saline).
As to `CCOP(=O)(Cc1ccc(N(CCI)CCI)cc1)OCC`, the T/C is, setting by setting: (dose: 75.0 mg/kg/injection, schedule: Q01DX001 (ip), vehicle: saline) 116 % of control; (dose: 150.0 mg/kg/injection, schedule: Q01DX001 (ip), vehicle: saline) 116 % of control.
Turning to `Nc1nc(=O)n(C2CC(O)C(CO)O2)cc1Br` (configuration not stated), the T/C is 95 % of control under setting [1]; 101 % of control under setting [2]; 109 % of control (dose: 50.0 mg/kg/injection, schedule: Q01DX001 (ip), vehicle: saline); 101 % of control (dose: 80.0 mg/kg/injection, schedule: Q01DX Z (ip), vehicle: carboxymethylcellulose (CMC)); 105 % of control under setting [3]; 106 % of control (dose: 160.0 mg/kg/injection, schedule: Q01DX Z (ip), vehicle: carboxymethylcellulose (CMC)). Further, the T/C was 111 % of control under setting [4] and 117 % of control under setting [5].
For the compound `CN(Cc1cnc2nc(N)nc(N)c2n1)c1cc(Cl)c(C(=O)NC(CCC(=O)O)C(=O)O)c(Cl)c1` (configuration not stated), the T/C by setting is: (dose: 25.0 mg/kg/injection, schedule: Q01DX009 (ip), vehicle: sodium bicarbonate) 106 % of control; (dose: 50.0 mg/kg/injection, schedule: Q01DX009 (ip), vehicle: sodium bicarbonate) 107 % of control; (dose: 100.0 mg/kg/injection, schedule: Q01DX009 (ip), vehicle: sodium bicarbonate) 622 % of control; (dose: 200.0 mg/kg/injection, schedule: Q01DX009 (ip), vehicle: sodium bicarbonate) 120 % of control.
For `CCCCCCCc1c(C)[nH]c2ccccc2c1=O`, the T/C reads like this: under setting [6], 86 % of control; (dose: 100.0 mg/kg/injection, schedule: Q04DX003 (ip), vehicle: other) 98 % of control; (dose: 200.0 mg/kg/injection, schedule: Q04DX003 (ip), vehicle: other) 94 % of control; (dose: 400.0 mg/kg/injection, schedule: Q04DX003 (ip), vehicle: other) 91 % of control.
For the compound `CC1(C)N=C(N)N=C(N)N1c1cccc(OCCOc2cccc(NC(=O)CBr)c2)c1`, the T/C by setting is: (dose: 5.0 mg/kg/injection, schedule: Q01DX001 (ip), vehicle: saline) 98 % of control; under setting [7], 102 % of control; (dose: 10.0 mg/kg/injection, schedule: Q01DX009 (ip), vehicle: other) 105 % of control; under setting [8], 93 % of control; (dose: 20.0 mg/kg/injection, schedule: Q01DX009 (ip), vehicle: other) 98 % of control; (dose: 40.0 mg/kg/injection, schedule: Q01DX001 (ip), vehicle: saline) 96 % of control.
Take `Cc1ccc(NC(=O)Oc2ccc(-c3ccccc3)cc2)cc1NC(=O)Oc1ccc(-c2ccccc2)cc1`: the T/C runs as follows: under setting [9], 91 % of control; (dose: 400.0 mg/kg/injection, schedule: Q01DX009 (ip), vehicle: saline with Tween-80) 96 % of control.
In the case of `CN(N=O)C(=O)NCCSSCCNC(=O)N(C)N=O`, the T/C is, setting by setting: (dose: 5.0 mg/kg/injection, schedule: Q01DX011 (ip), vehicle: carboxymethylcellulose (CMC)) 107 % of control; (dose: 5.0 mg/kg/injection, schedule: Q01DX Z (ip), vehicle: carboxymethylcellulose (CMC)) 104 % of control; (dose: 10.0 mg/kg/injection, schedule: Q01DX011 (ip), vehicle: carboxymethylcellulose (CMC)) 102 % of control; (dose: 10.0 mg/kg/injection, schedule: Q01DX Z (ip), vehicle: carboxymethylcellulose (CMC)) 104 % of control; (dose: 20.0 mg/kg/injection, schedule: Q01DX011 (ip), vehicle: carboxymethylcellulose (CMC)) 112 % of control; under setting [1], 112 % of control. Further, the T/C was 161 % of control (dose: 40.0 mg/kg/injection, schedule: Q01DX011 (ip), vehicle: carboxymethylcellulose (CMC)) and 119 % of control under setting [2].
Take `Cc1n[nH]c(C)c1N=NN1CCOCC1`: the T/C under setting [7] was 100 % of control and 107 % of control; the T/C under setting [8] is 107 % of control and 124 % of control; the T/C (dose: 30.0 mg/kg/injection, schedule: Q01DX001 (ip), vehicle: saline) was 105 % of control.
Take `FC(F)(CI)C(F)(F)C(F)(F)CI`: the T/C reads like this: (dose: 100.0 mg/kg/injection, schedule: Q01DX001 (ip), vehicle: acetone) 88 % of control; (dose: 200.0 mg/kg/injection, schedule: Q01DX001 (ip), vehicle: acetone) 88 % of control; (dose: 400.0 mg/kg/injection, schedule: Q01DX001 (ip), vehicle: acetone) 88 % of control.
As to `CC(=O)Oc1cccc(OC(=O)Nc2ccccc2F)c1`, the T/C is, setting by setting: (dose: 25.0 mg/kg/injection, schedule: Q01DX009 (ip), vehicle: saline with Tween-80) 103 % of control; (dose: 50.0 mg/kg/injection, schedule: Q01DX009 (ip), vehicle: saline with Tween-80) 108 % of control; under setting [9], 103 % of control and 113 % of control; under setting [10], 95 % of control and 103 % of control.
Consider `O=c1cc(O)nc2ccccn12`, for which the T/C runs as follows: under setting [6], 99 % of control; (dose: 100.0 mg/kg/injection, schedule: Q04DX003 (ip), vehicle: Klucel (hydroxypropylcellulose) (HPC)) 95 % of control; (dose: 200.0 mg/kg/injection, schedule: Q01DX009 (ip), vehicle: Klucel (hydroxypropylcellulose) (HPC)) 97 % of control; (dose: 200.0 mg/kg/injection, schedule: Q04DX003 (ip), vehicle: Klucel (hydroxypropylcellulose) (HPC)) 96 % of control; (dose: 400.0 mg/kg/injection, schedule: Q01DX009 (ip), vehicle: Klucel (hydroxypropylcellulose) (HPC)) 92 % of control; (dose: 400.0 mg/kg/injection, schedule: Q04DX003 (ip), vehicle: Klucel (hydroxypropylcellulose) (HPC)) 91 % of control.
As to `O=C(CCNC(=O)OCc1ccccc1)NC(Cc1ccccc1)C(=O)OCc1ccccc1` (configuration not stated), the T/C under setting [11] was 103 % of control, the T/C under setting [12] was 97 % of control and the T/C under setting [13] is 95 % of control.
Turning to `CC1(C)C2CCC1(C(=O)O)C(=O)C2` (configuration not stated), the T/C is, setting by setting: under setting [9], 96 % of control; under setting [10], 95 % of control.
Take `O=[N+]([O-])c1cc(Cl)ccc1O`: the T/C under setting [11] was 91 % of control, the T/C under setting [12] is 107 % of control and the T/C under setting [13] was 96 % of control.
Turning to `O=S(=O)(c1ccc(Cl)cc1)C1CCCC1Cl` (configuration not stated), the T/C is, setting by setting: under setting [3], 110 % of control; under setting [4], 109 % of control; under setting [5], 100 % of control.
As for `COc1ccc(OC)c2c1C(=O)CC2C` (configuration not stated), the T/C is 100 % of control (dose: 100.0 mg/kg/injection, schedule: Q01DX009 (ip), vehicle: saline); 96 % of control (dose: 100.0 mg/kg/injection, schedule: Q04DX003 (ip), vehicle: saline); 96 % of control (dose: 200.0 mg/kg/injection, schedule: Q01DX009 (ip), vehicle: saline); 96 % of control (dose: 200.0 mg/kg/injection, schedule: Q04DX003 (ip), vehicle: saline); 91 % of control (dose: 400.0 mg/kg/injection, schedule: Q04DX003 (ip), vehicle: saline).
